# Columns and labels:
# MX1 = assay: Cytotoxicity against human MX1 cells assessed as cell viability after 72 hrs by MTT assay; assay type: functional, cell-based; settings: MX1, 72 h
# PBMC = assay: Cytotoxicity against human PBMC assessed as cell viability after 72 hrs by MTT assay; assay type: cell-based
# MCF7 = assay: Cytotoxicity against human MCF7 cells assessed as cell viability after 72 hrs by MTT assay; assay type: functional, cell-based; settings: MCF7, 72 h
# [1] = Cytotoxicity against human Hs578T cells assessed as cell viability after 72 hrs by MTT assay; assay type: functional, cell-based; settings: Hs-578T
# OVCAR-8 = assay: Cytotoxicity against human OVCAR8 cells assessed as cell viability after 72 hrs by MTT assay; assay type: functional, cell-based; settings: OVCAR-8, 72 h
# V79 = assay: Cytotoxicity against chinese hamster V79 cells assessed as cell viability after 72 hrs by MTT assay; assay type: cell-based; settings: Cricetulus griseus, V79, 72 h
# PC-3 = assay: Cytotoxicity against human PC3 cells assessed as cell viability after 72 hrs by MTT assay; assay type: functional, cell-based; settings: PC-3, 72 h
# [2] = Cytotoxicity against human HCT8 cells assessed as cell viability after 72 hrs by MTT assay; assay type: functional, cell-based; settings: HCT-8, 72 h
# SF-295 = assay: Cytotoxicity against human SF295 cells assessed as cell viability after 72 hrs by MTT assay; assay type: functional, cell-based; settings: SF-295, 72 h
# DU-145 = assay: Cytotoxicity against human DU145 cells assessed as cell viability after 72 hrs by MTT assay; assay type: functional, cell-based; settings: DU-145, 72 h
# HL-60 = assay: Cytotoxicity against human HL60 cells assessed as cell viability after 72 hrs by MTT assay; assay type: functional, cell-based; settings: HL-60, 72 h
# L929 = assay: Cytotoxicity against mouse L929 cells assessed as cell viability after 72 hrs by MTT assay; assay type: ADME, cell-based; settings: L929, 72 h
# HCT-116 = assay: Cytotoxicity against human HCT116 cells assessed as cell viability after 72 hrs by MTT assay; assay type: functional, cell-based; settings: HCT-116, 72 h
# MDA-MB-435 = assay: Cytotoxicity against human MDA-MB-435 cells assessed as cell viability after 72 hrs by MTT assay; assay type: functional, cell-based; settings: MDA-MB-435, 72 h
SMILES,IC50 (MX1),IC50 (PBMC),IC50 (MCF7),IC50 [1],IC50 (OVCAR-8),IC50 (V79),IC50 (PC-3),IC50 [2],IC50 (SF-295),IC50 (DU-145),IC50 (HL-60),IC50 (L929),IC50 (HCT-116),IC50 (MDA-MB-435)
CCCCCCc1cn(C2C3=C(OC2(C)C)C(=O)c2ccccc2C3=O)nn1 (stereo not given),7.33 µM,9.01 µM,9.41 µM,8.28 µM,5.35 µM,7.22 µM,10.2 µM,5.32 µM,11.2 µM,9.88 µM,1.9 µM,8.3 µM,4.88 µM,3.98 µM
O=C1C(Br)=C(NCc2cn(CN3C(=O)c4ccccc4C3=O)nn2)C(=O)c2ccccc21,> 10 µM,> 10 µM,> 10 µM,> 10 µM,> 10 µM,> 10 µM,> 10 µM,> 10 µM,> 10 µM,> 10 µM,> 10 µM,> 10 µM,> 10 µM,> 10 µM
O=C1C(Cl)=C(NCc2cn(CCN3C(=O)c4ccccc4C3=O)nn2)C(=O)c2ccccc21,> 10 µM,> 10 µM,> 10 µM,> 10 µM,> 10 µM,> 10 µM,> 10 µM,> 10 µM,> 10 µM,> 10 µM,> 10 µM,> 10 µM,> 10 µM,> 10 µM
O=C1C(Br)=C(NCc2cn(CCCN3C(=O)c4ccccc4C3=O)nn2)C(=O)c2ccccc21,> 9 µM,> 9 µM,> 9 µM,> 9 µM,> 9 µM,> 9 µM,> 9 µM,> 9 µM,> 9 µM,> 9 µM,> 9 µM,> 9 µM,> 9 µM,> 9 µM
COc1ccc(NC2CC(C)(C)OC3=C2C(=O)c2ccccc2C3=O)cc1 (stereo not given),0.52 µM,1.76 µM,1.02 µM,0.69 µM,0.44 µM,0.96 µM,0.55 µM,0.47 µM,0.74 µM,0.88 µM,0.19 µM,0.74 µM,0.33 µM,0.58 µM
CC1(C)CC(n2cc(C3CCCCC3)nn2)C2=C(O1)C(=O)c1ccccc1C2=O (stereo not given),> 12 µM,> 12 µM,> 12 µM,10.9 µM,15.1 µM,12 µM,11.2 µM,12.3 µM,11.3 µM,11.7 µM,10.4 µM,12.5 µM,10.5 µM,10.7 µM
CC1(C)CC(Nc2cccc(Br)c2)C2=C(O1)C(=O)c1ccccc1C2=O (stereo not given),8.66 µM,5 µM,9.99 µM,11.5 µM,10.4 µM,3.2 µM,9.87 µM,> 12 µM,8.76 µM,10.5 µM,7.66 µM,3.81 µM,> 12 µM,9.6 µM
CC1(C)OC2=C(C(=O)c3ccccc3C2=O)C1n1cc(C2CCCCC2)nn1 (stereo not given),4.21 µM,7.36 µM,5.78 µM,4.95 µM,5.38 µM,6.12 µM,4.29 µM,6.7 µM,3.18 µM,5.48 µM,2.7 µM,6.62 µM,5.51 µM,2.76 µM
CCC(C)(O)c1cn(C2CC(C)(C)OC3=C2C(=O)c2ccccc2C3=O)nn1 (stereo not given),3.41 µM,4.77 µM,3.12 µM,3.04 µM,4.77 µM,4.06 µM,3.07 µM,2.73 µM,4.22 µM,3.36 µM,2.12 µM,3.85 µM,3.2 µM,2.1 µM
O=C1C(Cl)=C(NCc2cn(CCCN3C(=O)c4ccccc4C3=O)nn2)C(=O)c2ccccc21,> 10 µM,> 10 µM,> 10 µM,> 10 µM,> 10 µM,> 10 µM,> 10 µM,> 10 µM,> 10 µM,> 10 µM,> 10 µM,> 10 µM,> 10 µM,> 10 µM
O=C1C=C(NCc2cn(CCCN3C(=O)c4ccccc4C3=O)nn2)C(=O)c2ccccc21,> 11 µM,> 11 µM,> 11 µM,> 11 µM,> 11 µM,> 11 µM,> 11 µM,> 11 µM,> 11 µM,> 11 µM,> 11 µM,> 11 µM,> 11 µM,> 11 µM
CCCCCc1cn(C2CC(C)(C)OC3=C2C(=O)c2ccccc2C3=O)nn1 (stereo not given),2.4 µM,7.77 µM,3.16 µM,3.08 µM,6.67 µM,5.59 µM,3.66 µM,4.45 µM,2.77 µM,2.48 µM,1.37 µM,4.98 µM,4.93 µM,2.77 µM
CC1(C)CC(Nc2ccc([N+](=O)[O-])cc2)C2=C(O1)C(=O)c1ccccc1C2=O (stereo not given),5.52 µM,2.01 µM,7.16 µM,5.95 µM,6.66 µM,1.61 µM,5.79 µM,4.97 µM,5.95 µM,6.13 µM,4.26 µM,1.37 µM,5.66 µM,5.42 µM
O=C1C(Br)=C(NCc2cn(-c3cccc([N+](=O)[O-])c3)nn2)C(=O)c2ccccc21,> 11 µM,> 11 µM,> 11 µM,> 11 µM,> 11 µM,> 11 µM,> 11 µM,> 11 µM,> 11 µM,> 11 µM,> 11 µM,> 11 µM,> 11 µM,> 11 µM
O=C1C=C(NCc2cn(CCCCN3C(=O)c4ccccc4C3=O)nn2)C(=O)c2ccccc21,> 10 µM,> 10 µM,> 10 µM,> 10 µM,> 10 µM,> 10 µM,> 10 µM,> 10 µM,> 10 µM,> 10 µM,> 10 µM,> 10 µM,> 10 µM,> 10 µM

# Source: ChEMBL document CHEMBL3112408, “1,2,3-triazole-, arylamino- and thio-substituted 1,4-naphthoquinones: potent antitumor activity, electrochemical aspects, and bioisosteric replacement of C-ring-modified lapachones” (Bioorg Med Chem, 2014)
